Experimental data published in US20240067693A1, “POLYPEPTIDES AND USES THEREOF” (MEDIMMUNE LIMITED, priority 2020, published 2024).
Numbered stars: 1 amine (or outer) side, 2 acyl side, 3 side chain; on linkers, the order of the positions; unused ones are H or OH. Bridge positions count the residues as written; N and C are the ends. Square brackets hold non-standard residues; d marks the D form. Side chains are listed from the residue outwards. Peptide text beside a SMILES is read from it. * marks the point of attachment. C18 diacid = O=C(O)CCCCCCCCCCCCCCCCC(=O)*; γGlu = O=C(O)[C@H](CCC(=O)[*:2])N[*:1]; Aib = CC(C)(N)C(=O)O

How the values were obtained:
[1] = molecular target: T1, human amylin receptor (calcitonin receptor co-expressed with receptor activity modifying protein, RAMP3) (hAMYR3) (Homo sapiens, UniProt O60896+P30988); test: cAMP production in 1321N1 cells with stable recombinant expression of human amylin receptor (hAMYR3); assay type: cell-based; conditions: for Ratio (selectivity hAMYR vs hCTR, ratio of EC50 values at the two receptors): EC50 hCTR / EC50 hAMYR3; for EC50: cAMP, 1321N1 cells, assay buffer with 0.1% BSA, read-out: EC50 (pM) hAMYR3
T1 construct: expressed in transfected cells
T1 sequence (P30988 25-474): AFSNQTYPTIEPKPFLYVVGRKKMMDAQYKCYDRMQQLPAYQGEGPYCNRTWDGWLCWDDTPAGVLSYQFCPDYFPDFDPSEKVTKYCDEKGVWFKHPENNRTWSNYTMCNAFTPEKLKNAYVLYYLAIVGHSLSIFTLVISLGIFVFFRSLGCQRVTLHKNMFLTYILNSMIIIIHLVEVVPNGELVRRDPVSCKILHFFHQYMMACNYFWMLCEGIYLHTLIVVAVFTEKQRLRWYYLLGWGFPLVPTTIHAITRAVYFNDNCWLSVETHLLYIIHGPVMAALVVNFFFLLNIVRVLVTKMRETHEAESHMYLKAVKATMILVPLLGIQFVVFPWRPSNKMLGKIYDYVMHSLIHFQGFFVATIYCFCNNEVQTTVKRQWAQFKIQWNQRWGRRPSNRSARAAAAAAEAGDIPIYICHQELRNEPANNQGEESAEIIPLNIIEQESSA
T1 sequence (O60896 24-148 partner): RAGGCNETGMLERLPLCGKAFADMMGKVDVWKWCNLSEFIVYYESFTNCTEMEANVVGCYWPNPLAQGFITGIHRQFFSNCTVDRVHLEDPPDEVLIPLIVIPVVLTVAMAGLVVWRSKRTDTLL
In short: (§1)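 Thawed cells in HBSS/0.1% BSA/25 mM HEPES pH 7.4 with 0.5 mM IBMX were incubated with peptides 30 min at room temperature; cAMP read by HTRF. EC50 from 4-parameter fit of % activation relative to maximal amylin or calcitonin effect.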

[2] = molecular target: T2, human calcitonin receptor (hCTR) (Homo sapiens, UniProt P30988); test: cAMP production in 1321N1 cells with stable recombinant expression of human calcitonin receptor (hCTR); assay type: cell-based; conditions: cAMP, 1321N1 cells, assay buffer with 0.1% BSA; read-out: EC50 (pM) hCTR
T2 construct: expressed in transfected cells
T2 sequence (P30988 25-474): T1 sequence (P30988 25-474)
In short: as §1

Ratio (selectivity hAMYR vs hCTR, ratio of EC50 values at the two receptors) [1]	EC50 [1] [pM]	EC50 [2] [pM]	Compound
7	659	4800	CC[C@H](C)[C@H](NC(=O)[C@@H]1CCCN1C(=O)CNC(=O)[C@H](Cc1ccccc1)NC(=O)[C@H](CC(N)=O)NC(=O)C(C)(C)NC(=O)[C@H](CO)NC(=O)[C@H](CO)NC(=O)[C@H](Cc1c[nH]cn1)NC(=O)[C@@H](NC(=O)[C@H](CC(C)C)NC(=O)[C@H](Cc1ccccc1)NC(=O)[C@H](CC(N)=O)NC(=O)[C@H](C)NC(=O)[C@H](CC(C)C)NC(=O)[C@H](CCCNC(=N)N)NC(=O)[C@H](CCC(N)=O)NC(=O)[C@@H](NC(=O)[C@H](C)NC(=O)[C@@H]1CSSC[C@H](NC(=O)[C@H](CCCCN)NC(=O)[C@@H](N)CCCCNC(=O)CC[C@H](NC(=O)CCCCCCCCCCCCCCCCC(=O)O)C(=O)O)C(=O)N[C@@H](CC(N)=O)C(=O)N[C@@H]([C@@H](C)O)C(=O)N[C@@H](C)C(=O)N[C@@H]([C@@H](C)O)C(=O)N1)[C@@H](C)O)C(C)C)C(=O)NC(C)(C)C(=O)N1CCC[C@H]1C(=O)N1CCC[C@H]1C(=O)N[C@H](C(=O)N[C@@H](CC(N)=O)C(=O)N[C@H](C(=O)NCC(=O)N[C@@H](CO)C(=O)N[C@@H](CC(N)=O)C(=O)N[C@H](C(=O)N[C@@H](Cc1ccc(O)cc1)C(N)=O)[C@@H](C)O)C(C)C)[C@@H](C)O [Peptide 79, K(γE-C18diacid)K[CNTATC]ATQRLANFLVHSS(Aib)NFGPI(Aib)PPTNVGSNTY-amide] (H-K([γGlu-C18 diacid])KCNTATCATQRLANFLVHSS[Aib]NFGPI[Aib]PPTNVGSNTY-NH2; disulfide 3-8)
7	404	2760	CC[C@H](C)[C@H](NC(=O)[C@@H]1CCCN1C(=O)CNC(=O)[C@H](Cc1ccccc1)NC(=O)[C@H](CC(N)=O)NC(=O)C(C)(C)NC(=O)[C@H](CO)NC(=O)[C@H](CO)NC(=O)[C@H](Cc1c[nH]cn1)NC(=O)[C@@H](NC(=O)[C@H](CC(C)C)NC(=O)[C@H](Cc1ccccc1)NC(=O)[C@H](CC(N)=O)NC(=O)[C@H](C)NC(=O)[C@H](CC(C)C)NC(=O)[C@H](CCCNC(=N)N)NC(=O)[C@H](CCC(N)=O)NC(=O)[C@@H](NC(=O)[C@H](C)NC(=O)[C@@H]1CSSC[C@H](NC(=O)[C@H](CCCCN)NC(=O)[C@@H](N)CCCCNC(=O)CC[C@H](NC(=O)CCCCCCCCCCCCCCCCC(=O)O)C(=O)O)C(=O)N[C@@H](CC(N)=O)C(=O)N[C@@H]([C@@H](C)O)C(=O)N[C@@H](C)C(=O)N[C@@H]([C@@H](C)O)C(=O)N1)[C@@H](C)O)C(C)C)C(=O)N[C@@H](CC(C)C)C(=O)N1CCC[C@H]1C(=O)N1CCC[C@H]1C(=O)N[C@H](C(=O)N[C@@H](CC(N)=O)C(=O)N[C@H](C(=O)NC(C)(C)C(=O)N[C@@H](CO)C(=O)N[C@@H](CC(N)=O)C(=O)N[C@H](C(=O)N[C@@H](Cc1ccc(O)cc1)C(N)=O)[C@@H](C)O)C(C)C)[C@@H](C)O [Peptide 81, K(γE-C18diacid)K[CNTATC]ATQRLANFLVHSS(Aib)NFGPILPPTNV(Aib)SNTY-amide] (H-K([γGlu-C18 diacid])KCNTATCATQRLANFLVHSS[Aib]NFGPILPPTNV[Aib]SNTY-NH2; disulfide 3-8; N-terminus assumed)
8	514	4280	CC[C@H](C)[C@H](NC(=O)[C@@H]1CCCN1C(=O)CNC(=O)[C@H](Cc1ccccc1)NC(=O)[C@H](CC(N)=O)NC(=O)C(C)(C)NC(=O)[C@H](CO)NC(=O)[C@H](CO)NC(=O)[C@H](Cc1c[nH]cn1)NC(=O)[C@@H](NC(=O)[C@H](CC(C)C)NC(=O)[C@H](Cc1ccccc1)NC(=O)[C@H](CC(N)=O)NC(=O)[C@H](C)NC(=O)[C@H](CC(C)C)NC(=O)[C@H](CCCNC(=N)N)NC(=O)[C@H](CCC(N)=O)NC(=O)[C@@H](NC(=O)[C@H](C)NC(=O)[C@@H]1CSSC[C@H](NC(=O)[C@H](CCCCN)NC(=O)[C@@H](N)CCCCNC(=O)CC[C@H](NC(=O)CCCCCCCCCCCCCCCCC(=O)O)C(=O)O)C(=O)N[C@@H](CC(N)=O)C(=O)N[C@@H]([C@@H](C)O)C(=O)N[C@@H](C)C(=O)N[C@@H]([C@@H](C)O)C(=O)N1)[C@@H](C)O)C(C)C)C(=O)N[C@@H](CC(C)C)C(=O)N1CCC[C@H]1C(=O)N1CCC[C@H]1C(=O)N[C@H](C(=O)N[C@@H](CC(N)=O)C(=O)N[C@H](C(=O)NCC(=O)N[C@@H](CO)C(=O)NC(C)(C)C(=O)N[C@H](C(=O)N[C@@H](Cc1ccc(O)cc1)C(N)=O)[C@@H](C)O)C(C)C)[C@@H](C)O [Peptide 82, K(γE-C18diacid)K[CNTATC]ATQRLANFLVHSS(Aib)NFGPILPPTNVGS(Aib)TY-amide] (H-K([γGlu-C18 diacid])KCNTATCATQRLANFLVHSS[Aib]NFGPILPPTNVGS[Aib]TY-NH2; disulfide 3-8)
11	599	6340	CC[C@H](C)[C@H](NC(=O)[C@@H]1CCCN1C(=O)CNC(=O)[C@H](Cc1ccccc1)NC(=O)[C@H](CC(N)=O)NC(=O)C(C)(C)NC(=O)[C@H](CO)NC(=O)[C@H](CO)NC(=O)[C@H](Cc1c[nH]cn1)NC(=O)[C@@H](NC(=O)[C@H](CC(C)C)NC(=O)[C@H](Cc1ccccc1)NC(=O)[C@H](CC(N)=O)NC(=O)[C@H](C)NC(=O)[C@H](CC(C)C)NC(=O)[C@H](CCCNC(=N)N)NC(=O)[C@H](CCC(N)=O)NC(=O)[C@@H](NC(=O)[C@H](C)NC(=O)[C@@H]1CSSC[C@H](NC(=O)[C@H](CCCCN)NC(=O)[C@@H](N)CCCCNC(=O)CC[C@H](NC(=O)CCCCCCCCCCCCCCCCC(=O)O)C(=O)O)C(=O)N[C@@H](CC(N)=O)C(=O)N[C@@H]([C@@H](C)O)C(=O)N[C@@H](C)C(=O)N[C@@H]([C@@H](C)O)C(=O)N1)[C@@H](C)O)C(C)C)C(=O)N[C@@H](CC(C)C)C(=O)N1CCC[C@H]1C(=O)N1CCC[C@H]1C(=O)N[C@H](C(=O)N[C@@H](CC(N)=O)C(=O)N[C@H](C(=O)NCC(=O)N[C@@H](CO)C(=O)N[C@@H](CC(N)=O)C(=O)NC(C)(C)C(=O)N[C@@H](Cc1ccc(O)cc1)C(N)=O)C(C)C)[C@@H](C)O [Peptide 83, K(γE-C18diacid)K[CNTATC]ATQRLANFLVHSS(Aib)NFGPILPPTNVGSN(Aib)Y-amide] (H-K([γGlu-C18 diacid])KCNTATCATQRLANFLVHSS[Aib]NFGPILPPTNVGSN[Aib]Y-NH2; disulfide 3-8; N-terminus assumed)
3	118	401	CC[C@H](C)[C@H](NC(=O)[C@@H]1CCCN1C(=O)CNC(=O)[C@H](Cc1ccccc1)NC(=O)[C@H](CC(N)=O)NC(=O)C(C)(C)NC(=O)[C@H](CO)NC(=O)[C@H](CO)NC(=O)[C@H](Cc1c[nH]cn1)NC(=O)[C@@H](NC(=O)[C@H](CC(C)C)NC(=O)[C@H](Cc1ccccc1)NC(=O)[C@H](CC(N)=O)NC(=O)[C@H](C)NC(=O)[C@H](CC(C)C)NC(=O)[C@H](CCCNC(=N)N)NC(=O)[C@H](CCC(N)=O)NC(=O)[C@@H](NC(=O)[C@H](C)NC(=O)[C@@H]1CSSC[C@H](NC(=O)[C@H](CCCCN)NC(=O)[C@@H](N)CCCCNC(=O)CC[C@H](NC(=O)CCCCCCCCCCCCCCCCC(=O)O)C(=O)O)C(=O)N[C@@H](CC(N)=O)C(=O)N[C@@H]([C@@H](C)O)C(=O)N[C@@H](C)C(=O)N[C@@H]([C@@H](C)O)C(=O)N1)[C@@H](C)O)C(C)C)C(=O)N[C@@H](CC(C)C)C(=O)N1CCC[C@H]1C(=O)N1CCC[C@H]1C(=O)N[C@H](C(=O)N[C@@H](CC(N)=O)C(=O)N[C@H](C(=O)NCC(=O)NC(C)(C)C(=O)N[C@@H](CC(N)=O)C(=O)N[C@H](C(=O)N[C@@H](Cc1ccc(O)cc1)C(N)=O)[C@@H](C)O)C(C)C)[C@@H](C)O [Peptide 84, K(γE-C18diacid)K[CNTATC]ATQRLANFLVHSS(Aib)NFGPILPPTNVG(Aib)NTY-amide] (H-K([γGlu-C18 diacid])KCNTATCATQRLANFLVHSS[Aib]NFGPILPPTNVG[Aib]NTY-NH2; disulfide 3-8; N-terminus assumed)
